Assay results from US20250011687A1, “BIODEGRADABLE CHELATING AGENTS AND METHODS FOR FABRIC CARE” (The Procter & Gamble Company, priority 2023, published 2025).

Experiments:
[1] = calcium binding efficiency, logK(β110); type: physicochemical; conditions: one metal, one ligand, no protons
Source text: (§1) The binding efficiencies may be expressed as a binding constant. A binding constant (also called formation constant or stability constant) is an equilibrium constant for the formation of a complex in solution. It is a measure of the strength of the interaction between the reagents that come together to form the complex. As an example, various stains may comprise catechins as shown in Formula 13.
(§2) The chelating agent(s) according to various embodiments may, therefore, be selected to ensure a lower binding efficiency with calcium and a higher binding efficiency with iron at the wash pH.
(§3) In Table 1, the reaction between metals and ligands is described in terms of logK(β110). In this context, K, is the equilibrium constant for the reaction between ligands and metals. The higher K, the more metal is bound. This is illustrated in the following example.
(§4) β, represents the binding efficiency and receives some subscripts (βmlh) to indicate how many metals (m), ligands (l), and protons (h) respectively are involved.

[2] = iron binding efficiency, logK(β110); type: physicochemical; conditions: one metal, one ligand, no protons
Source text: as §1, §2, §3, §4

[3] = Example 1 stain removal in tergotometer wash, unit dose compositions at pH 7.0/8.5/10.0; conditions: treatments with pH<10.0; tropolone compared to HEDP or no chelating agent
Source text: Image analysis may be used to compare each stain to an unstained fabric control. Software may be used to convert images taken into standard colorimetric values and to compare these to standards based on the commonly used Macbeth Color Rendition Chart, assigning each stain a colorimetric value (Stain Level). The CIELAB color space, also referred to as L*a*b*, is a color space defined by the International Commission on Illumination (abbreviated CIE) in 1976.[a] It expresses color as three values: L* for perceptual lightness and a* and b* for the four unique colors of human vision: red, green, blue and yellow. The lightness value, L* defines black at 0 and white at 100. The a* axis is relative to the green-magenta opponent colors, with negative values toward green and positive values toward magenta. The b* axis represents the blue-yellow opponents, with negative numbers toward blue and positive toward yellow. In the following examples, various fabrics were analyzed using commercially available image analysis software for L*a*b* values. SRI values were then calculated from the L*a*b* values using the formula shown. The higher the SRI, the better the stain removal. […] One dose of detergent treatment, as detailed in Table 3 below, was added to a tergotometer and was evaluated using the Washing Method.

[4] = Example 3 stain removal in tergotometer wash, synthetic fabric; conditions: polyester, vs HEDP
Source text: Image analysis may be used to compare each stain to an unstained fabric control. Software may be used to convert images taken into standard colorimetric values and to compare these to standards based on the commonly used Macbeth Color Rendition Chart, assigning each stain a colorimetric value (Stain Level). The CIELAB color space, also referred to as L*a*b*, is a color space defined by the International Commission on Illumination (abbreviated CIE) in 1976.[a] It expresses color as three values: L* for perceptual lightness and a* and b* for the four unique colors of human vision: red, green, blue and yellow. The lightness value, L* defines black at 0 and white at 100. The a* axis is relative to the green-magenta opponent colors, with negative values toward green and positive values toward magenta. The b* axis represents the blue-yellow opponents, with negative numbers toward blue and positive toward yellow. In the following examples, various fabrics were analyzed using commercially available image analysis software for L*a*b* values. SRI values were then calculated from the L*a*b* values using the formula shown. The higher the SRI, the better the stain removal. […]

[5] = pKa of chelating agents and catechin (Table 1); type: physicochemical
Source text: Chelation is a type of bonding of ions and molecules to metal ions. It involves the formation or presence of two or more separate coordinate bonds between a ligand and a metal atom. Without being bound by theory, the stain removal effectiveness of a composition comprising one or more chelating agents may depend at least in part on the ability of the chelating agent(s) to bind to iron, which may be present in some stains, such as fruit or beverage stains. Several factors may impact a chelating agent's ability to bind to iron. These factors may include the pKa of the chelating agent compared to the wash pH, and the affinity of the chelating agent to bind with other metals, materials, or compositions in the wash.
Various embodiments may provide or employ a composition that comprises one or more chelating agents having a pKa that is less than the wash pH.

## O=c1cccccc1O [Tropolone, 2-Hydroxycyclohepta-2,4,6-trien-1-one]
[1]
  Ca^2+ logK(β110): 3.1
[2]
  Fe (III) logK(β110): 10.5
[3]
  stain removal performance (in words): improved stain removal performance
[4]
  stain removal on synthetics fabric (in words): significantly improved stain removal

## Oc1cc(O)c2c(c1)OC(c1ccc(O)c(O)c1)C(O)C2 (stereo not shown) [Catechin]
[5]; fourth listed pKa
  pKa: 13.4
[5]; second listed pKa
  pKa: 9.5
[5]; third listed pKa
  pKa: 11.2
[1]
  Ca^2+ logK(β110): 3.5
[1]; listed as catechins
  Ca^2+ logK(β110): about 3.5
[2]
  Fe (III) logK(β110): 19.2
[2]; listed as catechins
  Fe (III) logK(β110): about 19.2

## CC(C)c1cccc(=O)c(O)c1 [Hinokitiol, 2-Hydroxy-6-(propan-2-yl)cyclohepta-2,4,6-trien-1-one]
[5]; first listed pKa
  pKa: about 7
[1]
  Ca^2+ logK(β110): 2.2
[2]
  Fe (III) logK(β110): 12.9
[3]
  stain removal performance (in words): improved stain removal performance
[4]
  stain removal on synthetics fabric (in words): significantly improved stain removal

## CC(O)(P(=O)(O)O)P(=O)(O)O [HEDP, 1-Hydroxyethylidene-1,1-diphosphonic acid]
[5]; first listed pKa
  pKa: 1.7
[5]; fourth listed pKa
  pKa: 10.3
[5]; second listed pKa
  pKa: 2.5
[5]; third listed pKa
  pKa: 7.3
[1]
  Ca^2+ logK(β110): 6.8
[2]
  Fe (III) logK(β110): 14.1
